In ChEMBL document CHEMBL1201862, “PubChem BioAssay data set” (2004):
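Tested at 5 concentrations; 48 h exposure; 96-well plates; endpoints linearly interpolated, else capped at highest concentration. GI50 marks 50% less growth.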 Active and inactive are the calls of the source. Cut-off read from the data, not from the text of the source: active = GI50 up to about 1.1 µM and inactive = higher.

Key:
Assay in all cases: NCI anticancer screen, dose series, 48 h
EKVX = tested on: EKVX
U-251 = tested on: U-251
SW-620 = tested on: SW-620
IGROV-1 = tested on: IGROV-1
NCI-H522 = tested on: NCI-H522
K562 = tested on: K562
HCT-116 = tested on: HCT-116
OVCAR-8 = tested on: OVCAR-8
RPMI-8226 = tested on: RPMI-8226
SK-MEL-5 = tested on: SK-MEL-5
HT-29 = tested on: HT-29
PC-3 = tested on: PC-3
OVCAR-4 = tested on: OVCAR-4
ACHN = tested on: ACHN
OVCAR-3 = tested on: OVCAR-3
MOLT-4 = tested on: MOLT-4
SK-MEL-2 = tested on: SK-MEL-2
SF-539 = tested on: SF-539
SR = tested on: SR

Measured: GI50

COc1ccc(CC(N)c2ccc(OC)cc2)cc1 (stereo not drawn)
inactive: EKVX > 100 µM | U-251 95.3 µM | SW-620 > 100 µM | IGROV-1 66.7 µM | NCI-H522 > 100 µM | K562 33.1 µM | HCT-116 92.9 µM | OVCAR-8 > 100 µM | RPMI-8226 28.1 µM | SK-MEL-5 43.4 µM | HT-29 45.4 µM | PC-3 42.8 µM | OVCAR-4 > 100 µM | ACHN > 100 µM | OVCAR-3 > 100 µM | MOLT-4 57.8 µM

N#Cc1c(C#N)c(SSc2c(C#N)c(C#N)c(N)n2-c2ccccc2)n(-c2ccccc2)c1N
inactive: EKVX 20.9 µM | U-251 21.6 µM | SW-620 1.77 µM | IGROV-1 28.4 µM | NCI-H522 3.47 µM | K562 4.38 µM | HCT-116 3.33 µM | OVCAR-8 > 100 µM | RPMI-8226 2.78 µM | SK-MEL-5 6.22 µM | HT-29 40.5 µM | SK-MEL-2 21.1 µM | PC-3 20.9 µM | OVCAR-4 2.25 µM | SF-539 92.9 µM | ACHN 5.08 µM | OVCAR-3 16.7 µM | MOLT-4 5.89 µM

Oc1ccc(Cl)cc1C1=NC(NCN2CCN(CNC3=NC(c4ccccc4)CC(c4cc(Cl)ccc4O)=N3)CC2)=NC(c2ccccc2)C1 (stereo not drawn)
inactive: SR 28 µM | EKVX 48.3 µM | U-251 35.4 µM | SW-620 33.1 µM | IGROV-1 34.4 µM | K562 36.2 µM | HCT-116 20.4 µM | OVCAR-8 31.8 µM | RPMI-8226 18.4 µM | SK-MEL-5 93.5 µM | HT-29 36.5 µM | SK-MEL-2 43 µM | PC-3 39.7 µM | OVCAR-4 28.9 µM | SF-539 72.1 µM | ACHN 24.8 µM | OVCAR-3 28.8 µM

O=C1c2ccccc2-n2c1nc1ccc(Cl)cc1c2=O
inactive: SR 77.4 µM | EKVX 92 µM | U-251 34.5 µM | SW-620 > 100 µM | IGROV-1 78.2 µM | K562 14.3 µM | HCT-116 71.4 µM | OVCAR-8 35.2 µM | RPMI-8226 1.36 µM | SK-MEL-5 > 100 µM | HT-29 > 100 µM | SK-MEL-2 89.9 µM | PC-3 > 100 µM | OVCAR-4 > 100 µM | SF-539 > 100 µM | ACHN > 100 µM | OVCAR-3 > 100 µM | MOLT-4 78.3 µM

CC1=CC(=O)/C(=C/NC(=O)NN)C(=O)O1
inactive: EKVX 34.1 µM | U-251 > 100 µM | SW-620 > 100 µM | IGROV-1 58.5 µM | NCI-H522 > 100 µM | HCT-116 > 100 µM | OVCAR-8 > 100 µM | SK-MEL-5 > 100 µM | SK-MEL-2 > 100 µM | PC-3 > 100 µM | OVCAR-4 > 100 µM | SF-539 77.8 µM | ACHN > 100 µM | OVCAR-3 > 100 µM | MOLT-4 > 100 µM

O=C(CCc1ccccc1)ON1C(=S)NC(c2ccccc2)(c2ccccc2)C1=S
inactive: EKVX 25.4 µM | U-251 39.4 µM | SW-620 42.4 µM | IGROV-1 25.9 µM | K562 14.6 µM | HCT-116 23.7 µM | OVCAR-8 31.2 µM | RPMI-8226 29.1 µM | SK-MEL-5 19.5 µM | HT-29 25.4 µM | SK-MEL-2 20.2 µM | PC-3 23.4 µM | OVCAR-4 33.7 µM | SF-539 26.4 µM | ACHN 44.9 µM | OVCAR-3 29 µM | MOLT-4 32.3 µM

COc1nc(N(C)C)nc2c1[n+](C)cn2C [HETEROMINE A]
inactive: EKVX > 100 µM | U-251 15.6 µM | SW-620 57.5 µM | IGROV-1 > 100 µM | NCI-H522 17.1 µM | K562 18.6 µM | HCT-116 77.8 µM | OVCAR-8 44.1 µM | RPMI-8226 6.08 µM | SK-MEL-5 41.7 µM | HT-29 > 100 µM | SK-MEL-2 32.2 µM | PC-3 > 100 µM | SF-539 52.6 µM | ACHN > 100 µM | OVCAR-3 47 µM | MOLT-4 97.9 µM

CCOC(=O)C1C(C(C)C)C2(C#N)C(=N)OC1(C)C2(C#N)C#N (stereo not drawn)
inactive: EKVX 78.3 µM | U-251 82.4 µM | SW-620 62.1 µM | IGROV-1 88.3 µM | NCI-H522 26 µM | K562 30.8 µM | HCT-116 56 µM | OVCAR-8 > 100 µM | RPMI-8226 32.8 µM | SK-MEL-5 30.5 µM | HT-29 82 µM | SK-MEL-2 58.9 µM | PC-3 > 100 µM | SF-539 > 100 µM | ACHN > 100 µM
